Where no end group is shown, it is not given here.
How the values were obtained:
Type in all cases: binding, murine
[1] = target: T1, PDZD7 P1P2 G103R (Mus musculus, UniProt E9Q9W7, G103R); experiment: Fluorescence titration of P1P2 G103R
T1 construct: PDZ2ext (206-313), P1P2 (81-313); GST (followed by TEV site) (N, cleaved yes); made in house; host or cells: E. coli BL21 DE3
Procedure: (§1) Fluorescence titrations were performed on a Jasco V-730 spectrometer using quartz cell 109.004F-QS (Hellma Analytics) with an optical path of 10 mm and with thick side to reduce the inner filter effect. PDZ1ext and P1P2 were prepared in Phosphate Buffer pH 6.6 (50 mM) at 6 and 2 µM respectively, while PDZ2ext was prepared in Tris HCl pH 7.5 (50 mM) at 5 µM. Variations in the quantum yield of fluorescence of tryptophans from the sample were monitored upon progressive addition of buffered ADGRV1pbm peptide. After peptide addition, the sample is homogenized by in-spectrometer magnet agitation for 30 s. The sample is left to rest for an additional 60 s before measurement. Excitation is set at 295 nm and fluorescence was measured at the maximum emission wavelength (346-349 nm) of the unbound form with a 5 nm bandwidth for both. Titration curves were fitted using the following formula: y = Fp∗p0+(Fx-Fp)∗0.5∗(R∗I0+(1-R)∗x + K-((R∗I0+(1-R)∗x + K)^2-4∗R∗(I0-x)∗x)^1/2), where p0 is the initial protein concentration, I0 the peptide stock concentration, R the p0/I0 ratio, x the volume of added peptide in µl, Fp the fluorescence of PDZ constructs, Fx the fluorescence of the complex, and K the Kd. The values of p0, I0 and R are kept constant.
We characterized the potential effect of the two substitutions on the interaction with ADGRV1pbm using a panel of techniques. […]

[2] = target: T2, PDZD7 PDZ1ext G103R (Mus musculus, UniProt E9Q9W7, G103R); experiment: NMR titration of PDZ1ext G103R; settings: Tris HCl pH 7.5 (50 mM), 25°C
T2 construct: PDZ1 (81-167), PDZ1ext (81-192); GST (followed by TEV site) (N, cleaved yes); made in house; host or cells: E. coli BL21 DE3
Procedure: All experiments were recorded at 25°C on a Bruker 800 MHz spectrometer equipped with a triple resonance ^1H{^13C/^15N} cryoprobe. The ^1H, ^15 N and ^13C backbone resonances assignment of PDZ1ext was carried out using 3D HNCA, HNCACB, HNCO, HNCOCA experiments (Tris HCl buffer adjusted to pH 6). The 2D ^1H-^15N HSQC spectra used to compare PDZ1, PDZ1ext, PDZ2 and PDZ2ext were recorded in Tris HCl pH 7.5 (50 mM). The 2D ^1H-^15N HSQC spectra used to compare PDZ1ext, PDZ2ext and P1P2 were recorded in Phosphate Buffer pH 6.5 (50 mM). Titration experiments of PDZ1 (WT), PDZ1ext (WT) and PDZ1ext (G103R) against ADGRV1pbm peptide were performed in Tris HCl pH 7.5 (50 mM). Averaged Chemical Shifts Perturbations (CSP) were calculated as: Δδavg = ((Δδ(^1H))^2+(Δδ(^15N)*0.159)^2)^½. […]
We characterized the potential effect of the two substitutions on the interaction with ADGRV1pbm using a panel of techniques. First, we confirmed by NMR that PDZ1ext G103R is well-folded, with significant perturbations (CSPs >0.04 ppm) only detected for residues spatially close to the G103R mutation (Supplementary Figure S10). […] We calculated Rg = 28 Å and Dmax = 118.2 Å for the mutant tandem without ligand, and Rg = 27.7 Å and Dmax = 123.6 Å in presence of ADGRV1pbm peptide. […]

[3] = target: T3, PDZD7 P1P2 (81-313) (Mus musculus, UniProt E9Q9W7); experiment: Fluorescence titration of PDZ tandem P1P2; settings: fluorescence titration (Trp, ex 295 nm, em 346-349 nm); P1P2 2 µM in Phosphate Buffer pH 6.6 (50 mM); error from quality of fit
T3 construct: PDZ2ext (206-313), P1P2 (81-313); GST (followed by TEV site) (N, cleaved yes); made in house; host or cells: E. coli BL21 DE3
Procedure: as §1, with “The values of p0, I0 and R are kept constant.” left out
We monitored the interaction between PDZD7 constructs and a peptide (ADGRV1pbm) corresponding to the last 13 residues of ADGRV1, encompassing its PBM (sequence VELRRIPIADTHL-COOH; PBM underlined). […]

T2 sequence (E9Q9W7 81-192 G103R): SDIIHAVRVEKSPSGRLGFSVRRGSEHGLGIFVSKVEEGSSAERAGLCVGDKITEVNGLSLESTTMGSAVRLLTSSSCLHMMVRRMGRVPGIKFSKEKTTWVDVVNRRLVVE
T3 sequence (E9Q9W7 81-313): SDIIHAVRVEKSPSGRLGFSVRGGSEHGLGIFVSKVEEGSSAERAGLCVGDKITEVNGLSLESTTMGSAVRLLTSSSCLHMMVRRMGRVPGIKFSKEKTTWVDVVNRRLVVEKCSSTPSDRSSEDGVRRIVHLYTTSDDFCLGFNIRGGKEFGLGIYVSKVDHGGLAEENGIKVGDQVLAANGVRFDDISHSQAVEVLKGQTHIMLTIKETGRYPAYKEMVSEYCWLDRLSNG
T1 sequence (E9Q9W7 81-313 G103R): as the sequence (E9Q9W7 81-313) above, with G23R counted along it

Kd [1]: 1900 ± 400 nM
Kd [2]: 1.19 mM
Kd [3]: 1600 ± 300 nM
Sequence: VELRRIPIADTHL [ADGRV1pbm]

From PMC9274004, “Deciphering the Molecular Interaction Between the Adhesion G Protein-Coupled Receptor ADGRV1 and its PDZ-Containing Regulator PDZD7” (Frontiers in Molecular Biosciences, 2022)
